Laboratory results: ChEMBL document CHEMBL2384932, “Radiosynthesis and evaluation of [11C]EMPA as a potential PET tracer for orexin 2 receptors” (Bioorg Med Chem Lett, 2013)
Each block holds one compound with its values, some of them ahead of it.

Experiments:
[1] = molecular target: T1, Orexin receptor type 2 (Rattus norvegicus) (UniProt P56719); test: Binding affinity to rat brain OX2 receptor assessed per mg of protein
T1 sequence (whole entry): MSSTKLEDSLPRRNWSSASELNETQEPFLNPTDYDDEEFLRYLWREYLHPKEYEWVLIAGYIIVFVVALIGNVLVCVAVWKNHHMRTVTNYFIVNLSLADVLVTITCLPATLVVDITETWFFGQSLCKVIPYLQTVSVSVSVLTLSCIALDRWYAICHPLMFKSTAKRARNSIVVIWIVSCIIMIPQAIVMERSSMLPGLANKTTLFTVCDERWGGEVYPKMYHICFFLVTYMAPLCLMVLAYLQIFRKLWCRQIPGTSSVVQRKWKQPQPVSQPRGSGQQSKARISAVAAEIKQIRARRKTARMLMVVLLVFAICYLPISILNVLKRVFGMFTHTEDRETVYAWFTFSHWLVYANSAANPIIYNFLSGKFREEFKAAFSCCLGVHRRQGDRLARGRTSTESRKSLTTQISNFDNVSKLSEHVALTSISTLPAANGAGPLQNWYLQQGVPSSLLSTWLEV

[2] = Lipophilicity, log D of the compound in phosphate buffer at ph 7.4; assay type: physicochemical
Brain [3] = test: Drug uptake in baboon brain at 4.49 mCi after 80 mins by PET-MR imaging analysis; assay type: ADME; conditions: papio anubis, in vivo
Kidney = test: Drug uptake in Sprague-Dawley rat kidney at 1.0 to 1.2 mCi, iv after 90 mins by PET-CT scan in presence of non radiolabeled ligand EMPA; assay type: ADME, organism-based; conditions: in vivo, 1.5 h
[4] = Fraction unbound in baboon plasma after 10 mins; assay type: ADME, cell-free; conditions: papio anubis
Brain [5] = test: Drug uptake in Sprague-Dawley rat brain at 1.0 to 1.2 mCi, iv after 60 mins by PET-CT scan in presence of non radiolabeled ligand EMPA; assay type: ADME, organism-based; conditions: in vivo, 1 h
Liver = test: Drug uptake in Sprague-Dawley rat liver at 1.0 to 1.2 mCi, iv after 90 mins by PET-CT scan in presence of non radiolabeled ligand EMPA; assay type: ADME, organism-based; conditions: in vivo, 1.5 h
[6] = Drug uptake in baboon blood at 4.49 mCi by PET-MR imaging analysis; assay type: ADME; conditions: papio anubis
[7] = Ratio of drug level in brain to plasma of ip dosed mouse after 45 mins; assay type: ADME, organism-based; conditions: read-out: BPR

Bmax [1]: 6.62 pmol
Compound: CCN(Cc1cccnc1)C(=O)CN(c1ccc(OC)nc1)S(=O)(=O)c1ccccc1C

logD [2]: 1.94
Drug uptake (Brain [3]): < 0.01%
Drug uptake (Kidney): Active
fraction unbound at 10 min [4]: 0.113
Drug uptake (Brain [5]): < 0.1%
Drug uptake (Liver): Active
Drug uptake [6]: Active
Compound: CCN(Cc1cccnc1)C(=O)CN(c1ccc(O[11CH3])nc1)S(=O)(=O)c1ccccc1C

Kp at 0.75 h [7]: 0.7
Compound: [3H]c1ccc(CN(CC)C(=O)CN(c2ccc(OC([3H])([3H])[3H])nc2)S(=O)(=O)c2ccccc2C)cn1
